Among the data in PMC12040169 (PLOS Biology, 2025) are viability values, retold here.

The nature of the first data set: in vitro. The note with it: human, hela cells, % viability.
By viability is commonly meant a read-out of living cells in per cent, often relative to untreated cells. Regarding `O=c1[nH]c2ncc(-c3cncc4ccccc34)nc2n1Cc1ccccc1` [CBK065113], the viability at 28.5 h, 10 µM was 99.1%.

Take `CCNC(=O)N1CC2(CCN(CCOc3ccc(OC)cc3)CC2)c2ccccc21` [CBK144600T]: the viability at 28.5 h, 10 µM was found to be 98.4%.

On to `CSc1nsc(SCC(=O)c2ccc(Oc3ccccc3)cc2)n1` [CBK269104], for which the viability at 28.5 h, 10 µM amounted to 96.8%.

Take `COc1cc(NC(=O)CC2NC3CCCCC3NC2=O)cc(OC)c1` (stereo not drawn) [CBK266597]: the viability at 28.5 h, 10 µM was 99.1%.

Turning to `CC1(C)CCCC2=C1CC(C(=O)O)C(C(=O)O)C2` (stereo not drawn) [CBK272329], the viability at 28.5 h, 10 µM is 97.4%.

With `CC(C)(C)OC(=O)NCC1(CC(=O)O)CCCCC1` [CBK287030], the viability at 28.5 h, 10 µM turned out to be 93%.

`Cc1nn(C)c(N2CCNCC2)c1NC(=O)c1cccn1C` [CBK050309T]: the viability at 28.5 h, 10 µM was found to be 94.8%.

Take `CCCC1SCC(=O)N1c1nncs1` (stereo not drawn) [CBK023497]: the viability at 28.5 h, 10 µM is 95.4%.

For the compound `COc1ccc(CN2CCCN(C(=O)c3ccc(C#N)cc3)CC2)cc1` [CBK305273], the viability at 28.5 h, 10 µM was 91.4%.

Consider `CCOC(=O)c1sc(NC(=O)C2CCCO2)c(C(N)=O)c1C` (stereo not drawn) [CBK058830], for which the viability at 28.5 h, 10 µM amounted to 91.3%.

Take `CC(C)(C)c1nnc(NCC2CCCCC2)s1` [CBK075043]: the viability at 28.5 h, 10 µM turned out to be 101%.

Regarding `CCc1nc2ccc(C(=O)N3CCCC(C(N)=O)C3)cn2c1N(CC)CCN(C)C` (stereo not drawn) [CBK146185], the viability at 28.5 h, 10 µM is 98.8%.

Regarding `Cc1cc(CNS(=O)(=O)c2c(C)noc2C)no1` [CBK062261], the viability at 28.5 h, 10 µM worked out at 91.4%.

As to `O=c1cc(CSc2nnc(-c3ccccc3)[nH]2)nc2[nH]cnn12` [CBK294398], the viability at 28.5 h, 10 µM worked out at 96.1%.

As for `CC(=O)Nc1ccc(-c2cncc(N(CCO)CCO)n2)cc1` [CBK065789], the viability at 28.5 h, 10 µM was 106%.

Regarding `Cc1nn(CCC#N)c(C)c1[C@@H]1C=C[C@@H](NC(=O)Nc2ccccc2)C1` [CBK289173], the viability at 28.5 h, 10 µM stood at 92.9%.

With `Cc1cccc(Oc2nc3c(C)cccn3c(=O)c2/C=C(\C#N)c2nc3ccccc3[nH]2)c1` [CBK266528], the viability at 28.5 h, 10 µM was 104%.

As to `COc1cccc(CCN2N=C(C)CC2=O)c1OC` [CBK067766], the viability at 28.5 h, 10 µM is 100%.

On to `CCOCCCNC(=O)c1cnn2c(C)c(CC)c(C)nc12` [CBK162129], for which the viability at 28.5 h, 10 µM amounted to 93.7%.

In the case of `O=C(c1ccco1)N1Cc2nc[nH]c2C[C@H]1c1nc(-c2ccc3ccccc3c2)no1` [CBK288965], the viability at 28.5 h, 10 µM was found to be 108%.

Consider `O=c1[nH]c2ncc(-c3ccoc3)nc2n1C1CCOCC1` [CBK064973], for which the viability at 28.5 h, 10 µM turned out to be 119%.

Regarding `O=c1sc(Nc2ccccc2)nc2ccsc12` [CBK287853], the viability at 28.5 h, 10 µM is 91.9%.

Take `CCOC(=O)C(C)n1nc(C)n2c(cc3sc(C)cc32)c1=O` (stereo not drawn) [CBK284066]: the viability at 28.5 h, 10 µM was found to be 76.8%.

`CN1Cc2ccccc2CC1C(=O)N1CCCC12CC=CC2` (stereo not drawn) [CBK282838]: the viability at 28.5 h, 10 µM came out at 81.3%.

On to `OCc1ccccc1-c1cncc(N2CCCC2CO)n1` (stereo not drawn) [CBK065333], for which the viability at 28.5 h, 10 µM was 106%.

Consider `Cc1cc2nc3c(nc2cc1C)CCNCC3` [CBK012302], for which the viability at 28.5 h, 10 µM is 91.1%.

Consider `COC(=O)NC(=O)N1CCN(c2c(Cl)cncc2Cl)CC1` [CBK043398], for which the viability at 28.5 h, 10 µM came to 108%.

As for `CC(CC(=O)O)CC(=O)NNc1ncc(Cl)cc1Cl` (stereo not drawn) [CBK264398], the viability at 28.5 h, 10 µM was 102%.

In the case of `O=S(=O)(NCc1nc2ccccc2[nH]1)c1ccccc1` [CBK269460], the viability at 28.5 h, 10 µM turned out to be 94.6%.

For the compound `Cn1c(=O)[nH]c(=O)c2c1nc(N1CCOCC1)n2CC(O)COc1ccc(I)cc1` (stereo not drawn) [CBK262438], the viability at 28.5 h, 10 µM is 111%.

`COc1ccc2cc(C(=O)N3CCc4[nH]c(=O)c(C#N)cc4C3)[nH]c2c1` [CBK304622]: the viability at 28.5 h, 10 µM amounted to 87.8%.

Regarding `O=C(Nc1ccc(O)c(-c2nc3ccccc3o2)c1)c1ccc(-c2ccc([N+](=O)[O-])cc2)o1` [CBK263439], the viability at 28.5 h, 10 µM was 96.4%.

For `CC(C)(C)c1cn2c3ccccc3nc2n1CCO` [CBK273412], the viability at 28.5 h, 10 µM was 102%.

As for `Cc1ccccc1-c1nnc2n1CCCCC2` [CBK200076A], the viability at 28.5 h, 10 µM worked out at 108%.

Consider `O=C(Cn1ccc2ccnc(-c3cccs3)c21)NCc1ccccn1` [CBK284735], for which the viability at 28.5 h, 10 µM stood at 95.9%.

Regarding `O=C(CCc1ccc(O)c(O)c1)NNC(=S)Nc1ccc(F)cc1F` [CBK267041], the viability at 28.5 h, 10 µM was found to be 114%.

As for `CC(=O)Nc1ccc(NC(=O)COc2c(C)cc(Br)cc2C)cc1` [CBK267321], the viability at 28.5 h, 10 µM came to 101%.

For `CC(C)c1ccc(N2C(=O)N[C@@H]3CCN(C(=O)COc4ccccc4)[C@@H]3C2=O)cc1` [CBK289288], the viability at 28.5 h, 10 µM is 98.2%.

Turning to `CC(C)(C)c1cc2cc(NC(=O)C3CC3)ccc2[nH]1` [CBK019994], the viability at 28.5 h, 10 µM is 115%.

As to `O=C1c2ccc(Oc3cccc([N+](=O)[O-])c3)cc2C(=O)N1c1ccccn1` [CBK261190], the viability at 28.5 h, 10 µM is 95.8%.

`Oc1cccc2c1OCO2` [CBK000070]: the viability at 28.5 h, 10 µM came to 85.8%.

Turning to `Clc1ccc(Cn2ncc3c(NCCN4CCOCC4)ncnc32)cc1` [CBK266230], the viability at 28.5 h, 10 µM amounted to 105%.

As to `COCCNC(=O)CN(C)c1nc(-c2ccncc2)nc2ccccc12` [CBK305611], the viability at 28.5 h, 10 µM came to 94.2%.

`Cc1ccc(S(=O)(=O)NCCc2nc3ccccc3n2C)s1` [CBK281398]: the viability at 28.5 h, 10 µM is 81.5%.

As for `Nc1ncnc2c1nc1n2[C@H]2C[C@@H](O)[C@@H](C1)O2` [CBK201254], the viability at 28.5 h, 10 µM amounted to 102%.

Consider `O=C(N/N=C/c1c[nH]nc1-c1ccccc1)c1cccnc1` [CBK262461], for which the viability at 28.5 h, 10 µM was found to be 101%.

`CO[C@H]1CNC[C@@H]1NC(=O)c1cccc2c1NCCC2` [CBK307421]: the viability at 28.5 h, 10 µM is 115%.

For the compound `CCc1ccc(OC)c(S(=O)(=O)NC2CC(C)(C)NC(C)(C)C2)c1` [CBK270098], the viability at 28.5 h, 10 µM is 101%.

Take `C=CCC1(CC=C)CCN1C(=O)c1cccc(N2CCCC2=O)c1` [CBK282709]: the viability at 28.5 h, 10 µM is 85%.

Consider `Cc1cc(C(=O)N2CCC3(CCN(Cc4ccccc4)C3)C2)n[nH]1` (stereo not drawn) [CBK137092T], for which the viability at 28.5 h, 10 µM stood at 93.4%.

For the compound `Cc1[nH]c(=O)c(C(=O)N(C)C(C)c2ccc(Cl)cc2)cc1-c1ccc(O)cc1` (stereo not drawn) [CBK291225], the viability at 28.5 h, 10 µM worked out at 98.8%.

As to `CC(=O)Nc1ccc(CN2CCCCCC2c2cc(C)no2)cc1` (stereo not drawn) [CBK285415], the viability at 28.5 h, 10 µM worked out at 101%.

In the case of `Cc1ccc(C(=O)CCC(=O)CCC(=O)O)cc1` [CBK265546], the viability at 28.5 h, 10 µM is 95.6%.

Take `CCc1nc2ccc(C(=O)NC3CCN(Cc4ccccc4)CC3)cn2c1N(C)CC` [CBK145488]: the viability at 28.5 h, 10 µM turned out to be 88.3%.

Consider `CCN(CC)C(=O)C1CCCN(C(=O)Nc2cccnc2)C1` (stereo not drawn) [CBK156157], for which the viability at 28.5 h, 10 µM worked out at 96.8%.

As to `CN1CCC(N2CCN(C(=O)c3ccc(-c4ccc(OC(F)(F)F)cc4)nc3)CC2)CC1` [CBK156206], the viability at 28.5 h, 10 µM worked out at 92.8%.

As to `COc1ccc2c(C)c(CCC(=O)N(C)CC(=O)O)c(=O)oc2c1` [CBK286731], the viability at 28.5 h, 10 µM came to 87%.

Turning to `OCCN(Cc1cccnc1)Cc1cccn1-c1cccc(F)c1` [CBK283018], the viability at 28.5 h, 10 µM amounted to 81.5%.

Regarding `CCCc1[nH]nc(O)c1-c1ccc(OC)cc1` [CBK075135], the viability at 28.5 h, 10 µM was 96.1%.

For the compound `c1cc(COc2ccc(N3CCNCC3)nn2)co1` [CBK022562], the viability at 28.5 h, 10 µM is 95.7%.

As for `O=C(O)CN1/C(=C\C=C2/SC(=S)N(c3ccccc3)C2=O)Sc2ccccc21` [CBK265251], the viability at 28.5 h, 10 µM was 86.3%.

Take `CC(=O)Nc1ccc(NCc2cc(Cl)ccc2OCc2ccc(Cl)cc2Cl)cc1` [CBK078179]: the viability at 28.5 h, 10 µM was found to be 90.8%.

As for `CC1(C)CC(N(Cc2ccccc2)Cc2ncc[nH]2)CC(C)(C)N1` [CBK283179], the viability at 28.5 h, 10 µM amounted to 95.2%.

Take `O=S(=O)(Nc1ccc(Cl)c(Cl)c1)c1ccc(Cl)c(Cl)c1` [CBK044838]: the viability at 28.5 h, 10 µM was 86.8%.

As for `O=C(C1CCN(S(=O)(=O)c2ccc(F)cc2)C1)N1CCN(C2CCCC2)CC1` (stereo not drawn) [CBK285703], the viability at 28.5 h, 10 µM is 96.6%.

As for `CN(C)S(=O)(=O)Nc1ccc(Cc2ccncc2)cc1` [CBK265011], the viability at 28.5 h, 10 µM stood at 115%.

Turning to `COc1ccc(C(=O)Nc2nc(-c3ccc4c(c3)OCCO4)cs2)cc1OC` [CBK287588], the viability at 28.5 h, 10 µM is 92.5%.

On to `Cn1nc(-c2ccc(S(=O)(=O)Nc3nc(-c4cccnc4)cs3)s2)cc1C(F)(F)F` [CBK067270], for which the viability at 28.5 h, 10 µM worked out at 88.4%.

Regarding `O=C(O)c1ccc(Cl)c(-c2ccc(/C=N\Nc3ccc([N+](=O)[O-])cn3)o2)c1` [CBK263431], the viability at 28.5 h, 10 µM came out at 93.9%.

On to `COc1ccc(CNC(=O)CN2CCCC(Cn3cncn3)C2)cc1` (stereo not drawn) [CBK305339], for which the viability at 28.5 h, 10 µM is 88.9%.

For `Cc1ccc(NC(=O)CSc2nc3ccccc3c(=O)n2Cc2ccco2)cc1Cl` [CBK265606], the viability at 28.5 h, 10 µM was 102%.

Regarding `Cc1ccc(C2c3c(O)n[nH]c3CC(C)(O)C2C(=O)OCc2ccccc2)cc1` (stereo not drawn) [CBK269417], the viability at 28.5 h, 10 µM was determined as 92.8%.

Regarding `O=S(=O)(c1ccc2ccccc2c1)N1CCN(C2CCC(c3ccccc3)CC2)CC1` (stereo not drawn) [CBK264152], the viability at 28.5 h, 10 µM came to 103%.

For `CC1CCCN(CC(C)(C)NC(=O)c2cc(C(F)(F)F)nn2C)C1` (stereo not drawn) [CBK281598], the viability at 28.5 h, 10 µM is 87.9%.

Turning to `O=C(CSCc1c(F)cccc1Cl)NCc1ccncc1` [CBK268381], the viability at 28.5 h, 10 µM was 87.1%.

With `O=C(CSc1nc2ccccc2[nH]1)Nc1cccc(NC(=O)C23CC4CC(CC(C4)C2)C3)c1` [CBK265702], the viability at 28.5 h, 10 µM was determined as 89.8%.

On to `O=C(Nc1ccccc1)OC1CCCCC1` [CBK015569], for which the viability at 28.5 h, 10 µM is 116%.

Regarding `COc1ccc(-n2ncc(-c3cccnc3)n2)cn1` [CBK112827], the viability at 28.5 h, 10 µM was 96.7%.

Consider `COc1ccc([C@@]23CCC(NC(=S)NCc4ccccc4)C[C@@H]2N(Cc2ccccc2)CC3)cc1` (stereo partly drawn) [CBK028140], for which the viability at 28.5 h, 10 µM is 88%.

Consider `COc1ccc(C(C)NC2CCN(c3nc(C)cs3)CC2)cc1F` (stereo not drawn) [CBK306362], for which the viability at 28.5 h, 10 µM amounted to 94.7%.

Staying with this data set, now noted: human, hela cells, % viability, bulk resorufin, single well.
Take `CN(C)Cc1c(O)[nH]c(=S)[nH]c1=O` [CBK262474]: the viability at 28.5 h, 10 µM came out at 92.6%.
